Data published in BindingDB's records for doi:10.3109/14756366.2010.518965 (Guangzhou Institutes of Biomedicine and Health, Chinese …, 2011).
Where a name gives a salt, the structure may show the parent alone.

Assays:
Assay in all cases: UDP-glucuronosyltransferase Activity Assay
[1] = target: T1, UDP-glucuronosyltransferase 1-6 (Homo sapiens, UniProt P19224)
T1 sequence (P19224 whole entry): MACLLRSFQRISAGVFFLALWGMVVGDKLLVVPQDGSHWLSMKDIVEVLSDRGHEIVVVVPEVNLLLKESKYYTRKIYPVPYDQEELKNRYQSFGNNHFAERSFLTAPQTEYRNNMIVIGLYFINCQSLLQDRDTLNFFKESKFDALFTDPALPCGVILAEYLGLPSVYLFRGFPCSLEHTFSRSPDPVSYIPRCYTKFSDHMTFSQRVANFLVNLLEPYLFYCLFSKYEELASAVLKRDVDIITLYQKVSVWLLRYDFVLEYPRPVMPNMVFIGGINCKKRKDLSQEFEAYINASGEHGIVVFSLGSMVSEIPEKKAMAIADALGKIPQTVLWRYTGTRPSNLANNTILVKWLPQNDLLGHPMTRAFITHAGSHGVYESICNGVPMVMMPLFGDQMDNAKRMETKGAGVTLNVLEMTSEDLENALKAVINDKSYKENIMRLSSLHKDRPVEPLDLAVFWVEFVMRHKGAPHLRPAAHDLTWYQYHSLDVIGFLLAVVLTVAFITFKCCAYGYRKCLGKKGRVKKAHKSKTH

[2] = target: T2, UDP-glucuronosyltransferase 2B10 (Homo sapiens, UniProt P36537)
T2 sequence (P36537 whole entry): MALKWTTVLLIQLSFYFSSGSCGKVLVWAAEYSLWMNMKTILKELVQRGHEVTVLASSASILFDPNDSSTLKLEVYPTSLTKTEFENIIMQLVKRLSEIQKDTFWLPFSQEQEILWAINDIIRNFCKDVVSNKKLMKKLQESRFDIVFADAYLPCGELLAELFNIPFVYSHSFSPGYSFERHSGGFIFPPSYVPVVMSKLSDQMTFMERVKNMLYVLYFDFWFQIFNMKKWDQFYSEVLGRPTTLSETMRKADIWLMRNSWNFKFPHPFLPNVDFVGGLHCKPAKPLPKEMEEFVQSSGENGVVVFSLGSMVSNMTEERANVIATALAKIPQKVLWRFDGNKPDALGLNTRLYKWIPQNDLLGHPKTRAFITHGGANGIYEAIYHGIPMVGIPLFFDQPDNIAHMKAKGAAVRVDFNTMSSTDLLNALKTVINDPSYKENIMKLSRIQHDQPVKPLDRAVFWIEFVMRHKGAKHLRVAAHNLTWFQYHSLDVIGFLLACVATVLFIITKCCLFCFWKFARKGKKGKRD

[3] = target: T3, UDP-glucuronosyltransferase 1A1 (Homo sapiens, UniProt P22309)
T3 sequence (P22309 whole entry): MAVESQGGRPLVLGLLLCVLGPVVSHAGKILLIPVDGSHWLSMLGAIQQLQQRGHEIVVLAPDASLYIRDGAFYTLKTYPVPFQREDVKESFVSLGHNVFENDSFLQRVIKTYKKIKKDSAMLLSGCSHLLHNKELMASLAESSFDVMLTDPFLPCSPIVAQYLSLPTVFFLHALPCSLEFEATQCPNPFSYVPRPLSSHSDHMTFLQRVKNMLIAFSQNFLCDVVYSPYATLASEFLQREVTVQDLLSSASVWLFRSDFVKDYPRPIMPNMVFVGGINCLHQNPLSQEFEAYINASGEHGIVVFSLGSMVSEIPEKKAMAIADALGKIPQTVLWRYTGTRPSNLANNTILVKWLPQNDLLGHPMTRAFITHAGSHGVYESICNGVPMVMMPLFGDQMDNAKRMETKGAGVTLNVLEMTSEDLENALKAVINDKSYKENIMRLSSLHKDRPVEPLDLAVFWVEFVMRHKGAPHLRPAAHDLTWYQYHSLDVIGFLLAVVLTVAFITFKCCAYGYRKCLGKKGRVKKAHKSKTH

[4] = target: T4, UDP-glucuronosyltransferase 1A4 (Homo sapiens, UniProt P22310)
T4 sequence (P22310 whole entry): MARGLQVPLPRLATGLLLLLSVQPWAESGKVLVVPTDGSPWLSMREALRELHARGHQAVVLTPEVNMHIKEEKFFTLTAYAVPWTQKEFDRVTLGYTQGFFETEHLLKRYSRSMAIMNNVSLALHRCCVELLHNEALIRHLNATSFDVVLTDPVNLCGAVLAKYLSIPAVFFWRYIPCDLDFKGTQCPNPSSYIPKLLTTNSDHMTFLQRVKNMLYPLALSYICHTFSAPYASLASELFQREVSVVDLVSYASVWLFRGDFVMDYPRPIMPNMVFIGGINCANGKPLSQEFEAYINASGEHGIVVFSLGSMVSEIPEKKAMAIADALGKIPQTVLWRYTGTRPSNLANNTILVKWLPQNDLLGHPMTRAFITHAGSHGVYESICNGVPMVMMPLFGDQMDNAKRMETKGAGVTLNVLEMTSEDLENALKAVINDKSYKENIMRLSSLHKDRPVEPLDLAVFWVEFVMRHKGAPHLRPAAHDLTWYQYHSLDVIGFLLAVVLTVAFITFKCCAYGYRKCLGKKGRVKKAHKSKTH

[5] = target: T5, UDP-glucuronosyltransferase 2B7 (Homo sapiens, UniProt P16662)
T5 sequence (P16662 whole entry): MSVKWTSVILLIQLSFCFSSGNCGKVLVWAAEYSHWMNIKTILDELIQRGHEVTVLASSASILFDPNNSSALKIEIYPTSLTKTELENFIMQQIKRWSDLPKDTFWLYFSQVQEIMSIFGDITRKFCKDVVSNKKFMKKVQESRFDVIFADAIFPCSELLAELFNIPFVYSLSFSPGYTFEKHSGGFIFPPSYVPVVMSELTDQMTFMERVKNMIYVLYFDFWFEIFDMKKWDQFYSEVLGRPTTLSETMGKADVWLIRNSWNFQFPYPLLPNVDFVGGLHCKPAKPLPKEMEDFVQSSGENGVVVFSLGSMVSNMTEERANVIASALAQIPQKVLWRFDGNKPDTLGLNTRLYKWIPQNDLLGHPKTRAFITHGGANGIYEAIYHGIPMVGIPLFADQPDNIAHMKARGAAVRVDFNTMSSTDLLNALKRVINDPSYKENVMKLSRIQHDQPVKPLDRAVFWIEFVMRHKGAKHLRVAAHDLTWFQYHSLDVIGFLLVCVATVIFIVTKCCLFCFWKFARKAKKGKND

| Structure (SMILES) | IC50 [1] [µM] | IC50 [2] [µM] | IC50 [3] [µM] | IC50 [4] [µM] | IC50 [5] [µM] |
| --- | --- | --- | --- | --- | --- |
| Cc1ncsc1CCCl [Chlormethiazole] | > 300 | > 300 | > 300 | > 300 | > 300 |
| C=C[C@H]1C[N@@]2CC[C@H]1C[C@@H]2[C@@H](O)c1ccnc2ccc(OC)cc12 [(6-Methoxy-quinolin-4-yl)-(5-vinyl-1-aza-bicyclo[2.2.2]oct-2-yl)-methanol] | > 300 | > 300 | > 300 | 166 | > 300 |
| COc1ccc2[nH]c([S+]([O-])Cc3ncc(C)c(OC)c3C)nc2c1 (stereo not given) [H-168/68] | 185 | > 300 | 56 | > 300 | > 300 |
| COc1ccc2c(c1)[C@@]13CCCC[C@@H]1[C@@H](C2)N(C)CC3 [Dextromethorphan] | > 300 | 62 | > 300 | 89 | > 300 |
| C[C@]12CC[C@H]3[C@@H](CCC4=CC(=O)CC[C@@]43C)[C@@H]1CC[C@@H]2O [Testosterone, 1] | > 300 | > 300 | 43 |  | 165 |
| Cc1nc2c([nH]1)c(=O)n(C)c(=O)n2Cc1ccco1 [furafylline] | > 300 | > 300 | > 300 | > 300 | > 300 |
| CC(=O)N1CCN(c2ccc(OC[C@@H]3CO[C@@](Cn4ccnc4)(c4ccc(Cl)cc4Cl)O3)cc2)CC1 [Nizoral] | 19 | 22 | 4.1 | 58 | 60 |
| Nc1ccc(S(=O)(=O)Nc2ccnn2-c2ccccc2)cc1 | > 300 | > 300 | > 300 | > 300 | > 300 |
| CC[C@@]1(c2ccccc2)NC(=O)N(C)C1=O [(5S)-5-Ethyl-3-methyl-5-phenyl-2,4-imidazolidinedione] | > 300 | > 300 | > 300 | > 300 | > 300 |
| O=c1cc(-c2ccccc2)oc2c1ccc1ccccc12 | 67 | > 300 | 38 | 23 | 149 |
| Cc1ncc2n1-c1ccc(Cl)cc1C(c1ccccc1F)=NC2 [12-chloro-9-(2-fluorophenyl)-3-methyl-2,4,8-triazatricyclo[8.4.0.0^{2,6}]tetradeca-1(10),3,5,8,11,13-hexaene] | 23 | 106 | 26 |  | 147 |
| CC(=O)O[C@H]1C(=O)[C@@]2(C)[C@H]([C@H](OC(=O)c3ccccc3)[C@]3(O)C[C@H](OC(=O)[C@H](O)[C@@H](NC(=O)c4ccccc4)c4ccccc4)C(C)=C1C3(C)C)[C@]1(OC(C)=O)CO[C@@H]1C[C@@H]2O | 74 | > 300 | 20 | 4.9 | > 300 |
| CC(NC(C)(C)C)C(=O)c1cccc(Cl)c1 (stereo not given) [BUPROPION HYDROCHLORIDE] | > 300 | 88 | > 300 | 152 | > 300 |
| CCOc1ccc(NC(C)=O)cc1 [ACETPHENETIDIN] | > 300 | > 300 | > 300 | > 300 | > 300 |
| O=c1ccc2ccccc2o1 [2H-chromen-2-one] | > 300 | > 300 | > 300 | > 300 | > 300 |
| CO[C@H]1C[C@H](O[C@H]2[C@H](C)[C@@H](O[C@@H]3O[C@H](C)C[C@H](N(C)C)[C@H]3O)[C@@H](C)C[C@@]3(CO3)C(=O)[C@H](C)[C@@H](O)[C@@H](C)[C@@H](C)OC(=O)[C@@H]2C)O[C@@H](C)[C@@H]1O [Oleandomycin] | > 300 | > 300 | 44 | 59 | 272 |
| CCCCNC(=O)NS(=O)(=O)c1ccc(C)cc1 [1-Butyl-3-(p-methylphenylsulfonyl)urea] | 281 | > 300 | > 300 | > 300 | > 300 |
| O=C(O)Cc1ccccc1Nc1c(Cl)cccc1Cl [{2-[(2,6-dichlorophenyl)amino]phenyl}acetic acid] |  |  | 155 | 192 |  |
